Reference: ChEMBL document CHEMBL4665869, “New thiazolopyrimidine as anticancer agents: Synthesis, biological evaluation, DNA binding, molecular modeling and ADMET study” (Bioorg Med Chem Lett, 2020)
Converted amounts (≈) assume the structure as drawn.

Tests used:
U-251 = experiment: Growth inhibition of human U-251 cells at 10 uM relative to control; type: functional; conditions: read-out: GI
SNB-75 = experiment: Growth inhibition of human SNB-75 cells at 10 uM relative to control; type: functional; conditions: read-out: GI
ACHN = experiment: Growth inhibition of human ACHN cells at 10 uM relative to control; type: functional; conditions: read-out: GI
TK-10 = experiment: Growth inhibition of human TK-10 cells at 10 uM relative to control; type: functional; conditions: read-out: GI
UO-31 = experiment: Growth inhibition of human UO-31 cells at 10 uM relative to control; type: functional; conditions: read-out: GI
A549 = experiment: Growth inhibition of human A549 cells at 10 uM relative to control; type: functional; conditions: read-out: GI
COLO 205 = experiment: Growth inhibition of human COLO 205 cells at 10 uM relative to control; type: functional; conditions: read-out: GI
SK-OV-3 = experiment: Growth inhibition of human SK-OV-3 cells at 10 uM relative to control; type: functional; conditions: read-out: GI
SR = experiment: Growth inhibition of human SR cells at 10 uM relative to control; type: functional; conditions: read-out: GI
SF-539 = experiment: Growth inhibition of human SF-539 cells at 10 uM relative to control; type: functional; conditions: read-out: GI
MDA-MB-435 = experiment: Growth inhibition of human MDA-MB-435 cells at 10 uM relative to control; type: functional; conditions: read-out: GI
OVCAR-8 = experiment: Growth inhibition of human OVCAR-8 cells at 10 uM relative to control; type: functional; conditions: read-out: GI
UACC-257 = experiment: Growth inhibition of human UACC-257 cells at 10 uM relative to control; type: functional; conditions: read-out: GI
SK-MEL-2 = experiment: Growth inhibition of human SK-MEL-2 cells at 10 uM relative to control; type: functional; conditions: read-out: GI
SF-268 = experiment: Growth inhibition of human SF-268 cells at 10 uM relative to control; type: functional; conditions: read-out: GI
A498 = experiment: Growth inhibition of human A498 cells at 10 uM relative to control; type: functional; conditions: read-out: GI
MOLT-4 = experiment: Growth inhibition of human MOLT-4 cells at 10 uM relative to control; type: functional; conditions: read-out: GI
OVCAR-5 = experiment: Growth inhibition of human OVCAR-5 cells at 10 uM relative to control; type: functional; conditions: read-out: GI
NCI-H226 = experiment: Growth inhibition of human NCI-H226 cells at 10 uM relative to control; type: functional; conditions: read-out: GI
RPMI-8226 = experiment: Growth inhibition of human RPMI-8226 cells at 10 uM relative to control; type: functional; conditions: read-out: GI
NCI-H23 = experiment: Growth inhibition of human NCI-H23 cells at 10 uM relative to control; type: functional; conditions: read-out: GI
SNB-19 = experiment: Growth inhibition of human SNB-19 cells at 10 uM relative to control; type: functional; conditions: read-out: GI
KM12 = experiment: Growth inhibition of human KM12 cells at 10 uM relative to control; type: functional; conditions: read-out: GI
HCT-15 = experiment: Growth inhibition of human HCT-15 cells at 10 uM relative to control; type: functional; conditions: read-out: GI
HL-60(TB) = experiment: Growth inhibition of human HL-60(TB) cells at 10 uM relative to control; type: functional; conditions: read-out: GI
OVCAR-4 = experiment: Growth inhibition of human OVCAR-4 cells at 10 uM relative to control; type: functional; conditions: read-out: GI
DNA = experiment: Displacement of methyl green from DNA (unknown origin) assessed as DNA intercalation after 24 hrs by colorimetric assay; type: nucleic-acid assay
HCT-116 = experiment: Growth inhibition of human HCT-116 cells at 10 uM relative to control; type: functional; conditions: read-out: GI
PC-3 = experiment: Growth inhibition of human PC-3 cells at 10 uM relative to control; type: functional; conditions: read-out: GI
SF-295 = experiment: Growth inhibition of human SF-295 cells at 10 uM relative to control; type: functional; conditions: read-out: GI
Hs-578T = experiment: Growth inhibition of human Hs-578T cells at 10 uM relative to control; type: functional; conditions: read-out: GI
NCI-H322M = experiment: Growth inhibition of human NCI-H322M cells at 10 uM relative to control; type: functional; conditions: read-out: GI
HT-29 = experiment: Growth inhibition of human HT-29 cells at 10 uM relative to control; type: functional; conditions: read-out: GI
Malme-3M = experiment: Growth inhibition of human Malme-3M cells at 10 uM relative to control; type: functional; conditions: read-out: GI
DU-145 = experiment: Growth inhibition of human DU-145 cells at 10 uM relative to control; type: functional; conditions: read-out: GI
MCF7 = experiment: Growth inhibition of human MCF7 cells at 10 uM relative to control; type: functional; conditions: read-out: GI
RXF 393 = experiment: Growth inhibition of human RXF 393 cells at 10 uM relative to control; type: functional; conditions: read-out: GI
SN12C = experiment: Growth inhibition of human SN12C cells at 10 uM relative to control; type: functional; conditions: read-out: GI
BT-549 = experiment: Growth inhibition of human BT-549 cells at 10 uM relative to control; type: functional; conditions: read-out: GI
HOP-92 = experiment: Growth inhibition of human HOP-92 cells at 10 uM relative to control; type: functional; conditions: read-out: GI
NCI-H522 = experiment: Growth inhibition of human NCI-H522 cells at 10 uM relative to control; type: functional; conditions: read-out: GI
HOP-62 = experiment: Growth inhibition of human HOP-62 cells at 10 uM relative to control; type: functional; conditions: read-out: GI
IGROV-1 = experiment: Growth inhibition of human IGROV-1 cells at 10 uM relative to control; type: functional; conditions: read-out: GI
MDA-MB-468 = experiment: Growth inhibition of human MDA-MB-468 cells at 10 uM relative to control; type: functional; conditions: read-out: GI
CCRF-CEM = experiment: Growth inhibition of human CCRF-CEM cells at 10 uM relative to control; type: functional; conditions: read-out: GI
CAKI-1 = experiment: Growth inhibition of human CAKI-1 cells at 10 uM relative to control; type: functional; conditions: read-out: GI
LOX IMVI = experiment: Growth inhibition of human LOX IMVI cells at 10 uM relative to control; type: functional; conditions: read-out: GI
NCI/ADR-RES = experiment: Growth inhibition of human NCI/ADR-RES cells at 10 uM relative to control; type: functional; conditions: read-out: GI
NCI-H460 = experiment: Growth inhibition of human NCI-H460 cells at 10 uM relative to control; type: functional; conditions: read-out: GI
M14 = experiment: Growth inhibition of human M14 cells at 10 uM relative to control; type: functional; conditions: read-out: GI
T47D = experiment: Growth inhibition of human T47D cells at 10 uM relative to control; type: functional; conditions: read-out: GI
SK-MEL-5 = experiment: Growth inhibition of human SK-MEL-5 cells at 10 uM relative to control; type: functional; conditions: read-out: GI
UACC-62 = experiment: Growth inhibition of human UACC-62 cells at 10 uM relative to control; type: functional; conditions: read-out: GI
HCC 2998 = experiment: Growth inhibition of human HCC 2998 cells at 10 uM relative to control; type: functional; conditions: read-out: GI
SW-620 = experiment: Growth inhibition of human SW-620 cells at 10 uM relative to control; type: functional; conditions: read-out: GI
786-0 = experiment: Growth inhibition of human 786-0 cells at 10 uM relative to control; type: functional; conditions: read-out: GI
MDA-MB-231 = experiment: Growth inhibition of human MDA-MB-231 cells at 10 uM relative to control; type: functional; conditions: read-out: GI
SK-MEL-28 = experiment: Growth inhibition of human SK-MEL-28 cells at 10 uM relative to control; type: functional; conditions: read-out: GI
K562 = experiment: Growth inhibition of human K562 cells at 10 uM relative to control; type: functional; conditions: read-out: GI

In the case of `COc1cc(/C=C/C2=CC(c3cc(OC)c(OC)c(OC)c3)N3C(C)=CSC3=N2)cc(OC)c1OC` (centres undefined), the inhibition of growth at 10 µM (U-251) is reported as < 10%, the inhibition of growth at 10 µM (SNB-75) is reported as 12.5% and the inhibition of growth at 10 µM (ACHN) is reported as < 10%. The inhibition of growth at 10 µM (TK-10) was < 10%, the inhibition of growth at 10 µM (UO-31) was < 10% and the inhibition of growth at 10 µM (A549) was < 10%. For the same compound, the inhibition of growth at 10 µM (COLO 205) was < 10%, the inhibition of growth at 10 µM (SK-OV-3) was < 10% and the inhibition of growth at 10 µM (SR) was < 10%. The inhibition of growth at 10 µM (SF-539) was < 10%, the inhibition of growth at 10 µM (MDA-MB-435) was < 10% and the inhibition of growth at 10 µM (OVCAR-8) was < 10%. The inhibition of growth at 10 µM (UACC-257) was < 10%, the inhibition of growth at 10 µM (SK-MEL-2) was < 10% and the inhibition of growth at 10 µM (SF-268) was < 10%. For the same compound, the inhibition of growth at 10 µM (A498) was < 10%, the inhibition of growth at 10 µM (MOLT-4) was < 10% and the inhibition of growth at 10 µM (OVCAR-5) was < 10%. The inhibition of growth at 10 µM (NCI-H226) was < 10%, the inhibition of growth at 10 µM (RPMI-8226) was < 10% and the inhibition of growth at 10 µM (NCI-H23) was < 10%. The inhibition of growth at 10 µM (SNB-19) was < 10%, the inhibition of growth at 10 µM (KM12) was < 10% and the inhibition of growth at 10 µM (HCT-15) was < 10%. For the same compound, the inhibition of growth at 10 µM (HL-60(TB)) was < 10%, the inhibition of growth at 10 µM (OVCAR-4) was < 10% and the IC50 (DNA) was 91.48 µg/mL (≈ 179 µM). The inhibition of growth at 10 µM (HCT-116) was < 10%, the inhibition of growth at 10 µM (PC-3) was < 10% and the inhibition of growth at 10 µM (SF-295) was < 10%. For the same compound, the inhibition of growth at 10 µM (Hs-578T) was < 10%, the inhibition of growth at 10 µM (NCI-H322M) was < 10% and the inhibition of growth at 10 µM (HT-29) was < 10%. For the same compound, the inhibition of growth at 10 µM (Malme-3M) was < 10%, the inhibition of growth at 10 µM (DU-145) was < 10% and the inhibition of growth at 10 µM (MCF7) was < 10%. For the same compound, the inhibition of growth at 10 µM (RXF 393) was < 10%, the inhibition of growth at 10 µM (SN12C) was < 10% and the inhibition of growth at 10 µM (BT-549) was < 10%. The inhibition of growth at 10 µM (HOP-92) was < 10%, the inhibition of growth at 10 µM (NCI-H522) was 14.5% and the inhibition of growth at 10 µM (HOP-62) was < 10%. For the same compound, the inhibition of growth at 10 µM (IGROV-1) was < 10%, the inhibition of growth at 10 µM (MDA-MB-468) was < 10% and the inhibition of growth at 10 µM (CCRF-CEM) was < 10%. The inhibition of growth at 10 µM (CAKI-1) was < 10%, the inhibition of growth at 10 µM (LOX IMVI) was < 10% and the inhibition of growth at 10 µM (NCI/ADR-RES) was < 10%. For the same compound, the inhibition of growth at 10 µM (NCI-H460) was < 10%, the inhibition of growth at 10 µM (M14) was < 10% and the inhibition of growth at 10 µM (T47D) was < 10%. For the same compound, the inhibition of growth at 10 µM (SK-MEL-5) was < 10%, the inhibition of growth at 10 µM (UACC-62) was < 10% and the inhibition of growth at 10 µM (HCC 2998) was < 10%. For the same compound, the inhibition of growth at 10 µM (SW-620) was < 10%, the inhibition of growth at 10 µM (786-0) was < 10% and the inhibition of growth at 10 µM (MDA-MB-231) was < 10%. The inhibition of growth at 10 µM (SK-MEL-28) was < 10% and the inhibition of growth at 10 µM (K562) was < 10%.
